The values that follow come from patent publication US20260184726A1, “HETEROCYCLIC COMPOUNDS AS KINASE INHIBITORS, COMPOSITIONS, AND METHODS OF USE THEREOF” (JS INNOMED HOLDINGS LTD., priority 2022, published 2026).

Assay [1] has as its system BAF3 cells. Description: BAF3 Cell Proliferation Assay (CellTiter-Glo, without RET driven, IL-3). Format: cell-based. The note with it: Mus musculus; growth inhibition in BAF3 cells, 72 hours, with IL-3; read-out: BAF3 Cellular Activity. As for the experimental part: Compounds disclosed herein were tested for the inhibition BAF3 cells proliferation without RET driven by CellTiter-Glo assay. In this assay, a complete media was prepared by adding 10% fetal bovine serum and 1 ng/ml IL-3 to RPMI-1640 medium (Life technology) for BAF3 cells. BAF3 cells were added to each of 88 wells of a 96 well plate at a seeding density of 2,000 cells/well/95 μL. The cells were allowed to attach to the plate by incubating at 37° C. for 24 hours. The compound was dissolved in DMSO (SIGMA). A solution of test compound was prepared in complete media by serial dilution to obtain the following concentrations: 200 μM, 66.7 μM, 22.2 μM, 7.4 μM, 2.5 μM, 0.82 μM, 0.27 μM, 0.091 μM and […]. The test compound solution (5 μL) was added to each of 80 cell-containing wells. The final concentrations of the compound were following: 10 μM, 3.33 μM, 1.11 μM, 0.37 μM, 0.12 μM, 0.041 μM, 0.014 μM, 0.0046 μM and 0.0015 μM. The final concentration of DMSO is 0.1%. To the 8 remaining cell-containing wells, only complete media (containing 0.1% DMSO) was added to form a control group in order to measure maximal proliferation. To the remaining 8 empty wells, complete media was added to for a vehicle control group in order to measure background. The plates were incubated at 37° C. for 72 hours. 50 μl of CellTiter-Glo® Reagent was added to each well. The contents were mixed for 2 minutes on an orbital shaker to induce cell lysis, and then were incubated at room temperature for 10 minutes to stabilize luminescent signal. Luminescence was recorded on Paradigm. Cell viability (CV %) was calculated relative to vehicle (DMSO) treated control wells. The IC50 was calculated using GraphPad Prism.

The target of assay [2] is T1, BAF3-KIF5B-RET cells (Homo sapiens, UniProt P07949).
T1 construct: fused on or other part: P33176 (Kinesin-1 heavy chain)
T1 sequence (P07949 whole entry, change not shown, the tested form may be a part): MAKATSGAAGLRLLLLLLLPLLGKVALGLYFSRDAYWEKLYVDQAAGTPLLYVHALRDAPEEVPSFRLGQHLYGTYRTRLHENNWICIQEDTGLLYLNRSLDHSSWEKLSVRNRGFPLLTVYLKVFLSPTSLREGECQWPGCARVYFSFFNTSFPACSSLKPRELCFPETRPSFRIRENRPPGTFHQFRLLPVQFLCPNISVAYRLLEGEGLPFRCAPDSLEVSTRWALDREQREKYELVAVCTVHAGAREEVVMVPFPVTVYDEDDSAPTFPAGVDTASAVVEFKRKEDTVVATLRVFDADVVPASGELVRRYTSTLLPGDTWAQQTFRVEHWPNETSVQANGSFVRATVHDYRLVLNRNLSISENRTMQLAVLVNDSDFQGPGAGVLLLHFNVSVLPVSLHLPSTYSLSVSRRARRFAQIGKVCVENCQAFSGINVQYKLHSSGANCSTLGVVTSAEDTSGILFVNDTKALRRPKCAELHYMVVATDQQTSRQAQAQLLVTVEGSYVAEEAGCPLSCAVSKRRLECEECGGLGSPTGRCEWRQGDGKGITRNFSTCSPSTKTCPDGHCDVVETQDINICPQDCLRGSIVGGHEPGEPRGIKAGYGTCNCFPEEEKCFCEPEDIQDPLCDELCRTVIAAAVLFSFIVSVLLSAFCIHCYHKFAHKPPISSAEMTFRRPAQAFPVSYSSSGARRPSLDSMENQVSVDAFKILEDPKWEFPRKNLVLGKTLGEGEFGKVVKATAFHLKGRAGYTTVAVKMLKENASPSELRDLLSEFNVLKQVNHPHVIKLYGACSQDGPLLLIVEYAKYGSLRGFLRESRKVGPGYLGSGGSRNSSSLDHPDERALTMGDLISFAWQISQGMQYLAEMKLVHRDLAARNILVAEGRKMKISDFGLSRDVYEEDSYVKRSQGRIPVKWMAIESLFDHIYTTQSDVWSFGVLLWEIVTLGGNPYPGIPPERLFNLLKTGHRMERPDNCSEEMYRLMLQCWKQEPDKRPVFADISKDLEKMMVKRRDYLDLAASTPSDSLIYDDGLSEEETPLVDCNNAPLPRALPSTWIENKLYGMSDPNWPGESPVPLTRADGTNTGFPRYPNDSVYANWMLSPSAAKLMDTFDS
Description: BAF3-KIF5B-RET Cell Proliferation Assay (CellTiter-Glo). Format: cell-based. Conditions: growth inhibition, 72 hours; Table 2; read-out: BA/F3-KIF5B-RET Cellular activity. The procedure:
Compounds disclosed herein were tested for the inhibition of RET by a cancer cell proliferation assay commonly known as CellTiter-Glo assay. In this assay, a complete media was prepared by adding 10% fetal bovine serum to RPMI-1640 medium (Life technology) for RET-driven cancer cells (BAF3-FIF5B-RET, Ba/F3-KIF5B-RET-G810R, Ba/F3-TEL-RET-M918T or Ba/F3-KIF5B-RET-V804M). Individual RET-driven type of cells were added to each of 88 wells of a 96 well plate at a seeding density of 2,000 cells/well/95 μL. The cells were allowed to attach to the plate by incubating at 37° C. for 24 hours. The compound was dissolved in DMSO (SIGMA). A solution of test compound was prepared in complete media by serial dilution to obtain the following concentrations: 20 μM, 6.67 μM, 2.22 μM, 0.74 μM, 0.25 μM, 0.082 μM, 0.027 μM, 0.0091 μM and 0.0030 μM. The test compound solution (5 μL) was added to each of 80 cell-containing wells. The final concentrations of the compound were following: 1 μM, 0.33 μM, 0.11 μM, 0.037 μM, 0.012 μM, 0.0041 μM, 0.0014 μM, 0.00046 μM and 0.00015 μM. The final concentration of DMSO is 0.1%. To the 8 remaining cell-containing wells, only complete media (containing 0.1% DMSO) was added to form a control group in order to measure maximal proliferation. To the remaining 8 empty wells, complete media was added to for a vehicle control group in order to measure background. The plates were incubated at 37° C. for 72 hours. 50 μl of CellTiter-Glo® Reagent was added to each well. Mix contents for 2 minutes on an orbital shaker to induce cell lysis. Incubate at room temperature for 10 minutes to stabilize luminescent signal. Record luminescence on Paradigm. Cell viability (CV %) was calculated relative to vehicle (DMSO) treated control wells. The IC50 was calculated using GraphPad Prism.

Some results are limits rather than exact numbers.

`CC(C)(O)c1ccc(-c2cc(-c3cnc(N4C[C@@H]5C[C@@](C)(NC(=O)c6ncccc6Cl)C[C@@H]5C4)cn3)c3c(C#N)cnn3c2)nc1` [Example 6, 3-chloro-N-((3aR,5s,6aS)-2-(5-(3-cyano-6-(5-(2-hydroxypropan-2-yl)pyridin-2-yl)pyrazolo[1,5-a]pyridin-4-yl)pyrazin-2-yl)-5-methyloctahydrocyclopenta[c]pyrrol-5-yl)picolinamide]: the IC50 in assay [1] stood at 38.6 nM. The GI50 in assay [2] was determined as 3.5 nM.

Regarding `COc1ccc(CN2C3CC2CN(c2ccc(-c4cc(-c5ccc(C6(N)CC6)cn5)cn5ncc(C#N)c45)cn2)C3)cn1` [Example 17, 6-(5-(1-aminocyclopropyl)pyridin-2-yl)-4-(6-(6-((6-methoxypyridin-3-yl)methyl)-3,6-diazabicyclo[3.1.1]heptan-3-yl)pyridin-3-yl)pyrazolo[1,5-a]pyridine-3-carbonitrile], in assay [1], the IC50 amounted to 2770 nM. In assay [2], the GI50 came out at 4.2 nM.

As to `COc1ccc(C(=O)NC23CC4CC(C2)N(c2cnc(-c5cc(-c6ccc(C(C)(C)O)cn6)cn6ncc(C#N)c56)cn2)C(C4)C3)cn1` [Example 2, N-((1R,3S,5s,7s)-2-(5-(3-cyano-6-(5-(2-hydroxypropan-2-yl)pyridin-2-yl)pyrazolo[1,5-a]pyridin-4-yl)pyrazin-2-yl)-2-azaadamantan-5-yl)-6-methoxynicotinamide], in assay [1], the IC50 was determined as 362 nM. For the same compound, the GI50 in assay [2] worked out at 8.9 nM.

Turning to `COc1ccc(CN2C3CC2CN(c2ccc(-c4cc(-c5ccc(C(C)(C)O)nn5)cn5ncc(C#N)c45)cn2)C3)cn1` [Example 19, 6-(6-(2-hydroxypropan-2-yl)pyridazin-3-yl)-4-(6-(6-((6-methoxypyridin-3-yl)methyl)-3,6-diazabicyclo[3.1.1]heptan-3-yl)pyridin-3-yl)pyrazolo[1,5-a]pyridine-3-carbonitrile], the IC50 in assay [1] came out at 1260 nM. Moreover, in assay [2], the GI50 turned out to be 1.7 nM.

`COc1ccc(CN2C3CC2CN(c2cnc(-c4cc(-c5ccc(C(C)(C)O)nn5)cn5ncc(C#N)c45)cn2)C3)cn1` [Example 20, 6-(6-(2-hydroxypropan-2-yl)pyridazin-3-yl)-4-(5-(6-((6-methoxypyridin-3-yl)methyl)-3,6-diazabicyclo[3.1.1]heptan-3-yl)pyrazin-2-yl)pyrazolo[1,5-a]pyridine-3-carbonitrile]: the IC50 in assay [1] is 1480 nM. In assay [2], the GI50 worked out at 6.7 nM.

With `CC(C)(O)c1ccc(-c2cc(-c3ccc(N4C[C@@H]5[C@H](C4)[C@H]5NC(=O)c4ncccc4Cl)nc3)c3c(C#N)cnn3c2)nc1` [Example 21, 3-chloro-N-((1R,5S,6s)-3-(5-(3-cyano-6-(5-(2-hydroxypropan-2-yl)pyridin-2-yl)pyrazolo[1,5-a]pyridin-4-yl)pyridin-2-yl)-3-azabicyclo[3.1.0]hexan-6-yl)picolinamide], the IC50 in assay [1] is 351 nM. The GI50 in assay [2] is 28.8 nM.

For `COc1ccc(CN2C3CC2CN(c2ccc(-c4cc(-c5ccc(OCC(C)(C)O)nc5)cn5ncc(C#N)c45)cn2)C3)cn1` [Example 33, 6-(6-(2-hydroxy-2-methylpropoxy)pyridin-3-yl)-4-(6-(6-((6-methoxypyridin-3-yl)methyl)-3,6-diazabicyclo[3.1.1]heptan-3-yl)pyridin-3-yl)pyrazolo[1,5-a]pyridine-3-carbonitrile], the IC50 in assay [1] was found to be 2580 nM. Moreover, the GI50 in assay [2] was 5.1 nM.

Turning to `COc1ccc(CN2C3CC2CN(c2cnc(-c4cc(-c5ccc(C(C)(C)O)cn5)cn5ncc(C#N)c45)cn2)C3)cn1` [Example 1, 6-(5-(2-hydroxypropan-2-yl)pyridin-2-yl)-4-(5-(6-((6-methoxypyridin-3-yl)methyl)-3,6-diazabicyclo[3.1.1]heptan-3-yl)pyrazin-2-yl)pyrazolo[1,5-a]pyridine-3-carbonitrile], the IC50 in assay [1] was 1020 nM. Further, the GI50 in assay [2] came out at 1.8 nM.

Consider `COc1ccc(CN2C3CC2CN(c2ccc(-c4cc(-c5ccc(C(C)(C)N)nc5)cn5ncc(C#N)c45)cn2)C3)cn1` [Example 14, 6-(6-(2-aminopropan-2-yl)pyridin-3-yl)-4-(6-(6-((6-methoxypyridin-3-yl)methyl)-3,6-diazabicyclo[3.1.1]heptan-3-yl)pyridin-3-yl)pyrazolo[1,5-a]pyridine-3-carbonitrile], for which the IC50 in assay [1] was 1000 nM. In addition, the GI50 in assay [2] stood at 2.8 nM.

As to `COc1ccc(CN2C3CC2CN(c2ccc(-c4cc(-c5cnn(CC(C)(C)O)c5)cn5ncc(C#N)c45)cn2)C3)cn1` [Example 35, 6-(1-(2-hydroxy-2-methylpropyl)-1H-pyrazol-4-yl)-4-(6-(6-((6-methoxypyridin-3-yl)methyl)-3,6-diazabicyclo[3.1.1]heptan-3-yl)pyridin-3-yl)pyrazolo[1,5-a]pyridine-3-carbonitrile], the IC50 in assay [1] was determined as 340 nM. In addition, in assay [2], the GI50 was determined as 0.5 nM.

Turning to `COc1ccc(CN2C3CC2CN(c2ccc(-c4cc(-c5cnc(C(C)(C)O)cn5)cn5ncc(C#N)c45)cn2)C3)cn1` [Example 15, 6-(5-(2-hydroxypropan-2-yl)pyrazin-2-yl)-4-(6-(6-((6-methoxypyridin-3-yl)methyl)-3,6-diazabicyclo[3.1.1]heptan-3-yl)pyridin-3-yl)pyrazolo[1,5-a]pyridine-3-carbonitrile], the IC50 in assay [1] worked out at 2600 nM. For the same compound, the GI50 in assay [2] was 3.9 nM.

`COc1ccc(CN2C3CC2CN(c2ccc(-c4cc(-c5ncc(C(C)(C)O)cc5F)cn5ncc(C#N)c45)cn2)C3)cn1` [Example 24, 6-(3-fluoro-5-(2-hydroxypropan-2-yl)pyridin-2-yl)-4-(6-(6-((6-methoxypyridin-3-yl)methyl)-3,6-diazabicyclo[3.1.1]heptan-3-yl)pyridin-3-yl)pyrazolo[1,5-a]pyridine-3-carbonitrile]: the IC50 in assay [1] came to 2540 nM. In addition, the GI50 in assay [2] turned out to be 3.5 nM.

Regarding `COc1ccc(CN2C3CC2CN(c2ccc(-c4cc(-c5cc(C(C)(C)NC(C)=O)n(C)n5)cn5ncc(C#N)c45)cn2)C3)cn1` [Example 28, N-(2-(3-(3-cyano-4-(6-(6-((6-methoxypyridin-3-yl)methyl)-3,6-diazabicyclo[3.1.1]heptan-3-yl)pyridin-3-yl)pyrazolo[1,5-a]pyridin-6-yl)-1-methyl-1H-pyrazol-5-yl)propan-2-yl)acetamide], in assay [1], the IC50 was determined as 2330 nM. Further, the GI50 in assay [2] turned out to be 4 nM.

Consider `CC(C)(O)c1ccc(-c2cc(-c3ccc(N4C[C@@H]5[C@H](C4)[C@@H]5NC(=O)c4ncccc4Cl)nc3)c3c(C#N)cnn3c2)nc1` [Example 3, 3-chloro-N-((1R,5S,6r)-3-(5-(3-cyano-6-(5-(2-hydroxypropan-2-yl)pyridin-2-yl)pyrazolo[1,5-a]pyridin-4-yl)pyridin-2-yl)-3-azabicyclo[3.1.0]hexan-6-yl)picolinamide], for which, in assay [1], the IC50 was > 10000 nM. The GI50 in assay [2] worked out at 110 nM.

`COc1ccc(CN2C3CC2CN(c2ccc(-c4cc(-c5cc(C(C)(C)O)nn5C)cn5ncc(C#N)c45)cn2)C3)cn1` [Example 26, 6-(3-(2-hydroxypropan-2-yl)-1-methyl-1H-pyrazol-5-yl)-4-(6-(6-((6-methoxypyridin-3-yl)methyl)-3,6-diazabicyclo[3.1.1]heptan-3-yl)pyridin-3-yl)pyrazolo[1,5-a]pyridine-3-carbonitrile]: the IC50 in assay [1] was > 10000 nM. Besides, the GI50 in assay [2] came to 46.8 nM.
